17 compounds from publication PMC6522510 (Nature Communications, 2019) can be followed below.

Among the test systems are MOLM-13; U937; M07e; CMK; CHRF288-11; CMS; ML-2; MV4-11.
What all share (parameters): species or system AML cell lines (8); Primary HTS, single concentration about 10 uM, Cell Titer Glo viability; log10 luminescence, per cent inhibition relative to cycloheximide control
Details in all cases: 72 h, relative to cycloheximide control, log10 luminescence, inhibitor
(In ATP-based viability assays light output follows the ATP content of the culture.)

Like-named read-outs stand apart in the source and are kept apart here.

As for `CCc1nn2ncccc2c1-c1ccnc(NC2CC2)n1` [SJ000573100-1, U16767/17/1], the MOLM-13 %inh with MOLM-13 is on record as 5.368%. Further, the U937 %inh in the assay on U937 is listed as 0.5788%. The M07e %inh with M07e worked out at 1.664%. Further, the CMK %inh with CMK is given as -4.45%. Further, the CHRF288-11 %inh in the assay with CHRF288-11 is reported as 0.1094%. The CMS %inh with CMS was found to be 3.597%. Besides, the ML-2 %inh in the assay on ML-2 is on record as 0.1681%. For the same compound, the MV4-11 %inh in the assay on MV4-11 is given as 0.7749%.

Take `CC1(OC(=O)C2CCCC2)C(=O)C=C2C=C(c3ccsc3)N(CCCCO)C=C2C1=O` (stereo not shown) [SJ000579780-1]: the MOLM-13 %inh in the assay on MOLM-13 worked out at 6.828%. In addition, the U937 %inh in the assay with U937 was -0.2771%. Also, the M07e %inh with M07e is -0.9393%. In the assay on CMK, the CMK %inh is reported as -4.183%. Moreover, the CHRF288-11 %inh in the assay with CHRF288-11 is given as -0.7955%. The CMS %inh in the assay with CMS was 0.1638%. Further, the ML-2 %inh with ML-2 is reported as -1.026%. In addition, the MV4-11 %inh in the assay with MV4-11 is given as -0.2702%.

For the compound `Cn1cc(C2=C(c3cn(CCN)c4ccccc34)C(=O)NC2=O)c2ccccc21` [SJ000581125-1], the MOLM-13 %inh in the assay with MOLM-13 amounted to 2.432%. The U937 %inh in the assay on U937 is given as -0.6181%. In addition, the M07e %inh in the assay with M07e came out at 2.044%. The CMK %inh with CMK came out at 4.026%. Further, the CHRF288-11 %inh in the assay on CHRF288-11 is recorded as -0.3568%. In addition, the CMS %inh with CMS is recorded as 4.695%. In addition, the ML-2 %inh in the assay on ML-2 was 0.3075%. Moreover, in the assay with MV4-11, the MV4-11 %inh was 10.77%.

Turning to `O=c1ncnc2n([C@H]3O[C@@H](CO)[C@H](O)[C@@H]3O)[nH]cc1-2` (stereo in doubt) [SJ000562682-1, ALLOPURINOL RIBOSIDE], in the assay on MOLM-13, the MOLM-13 %inh is given as 4.507%. Besides, in the assay with U937, the U937 %inh was determined as 0.8426%. The M07e %inh in the assay on M07e was -1.058%. In addition, the CMK %inh with CMK stood at 1.077%. The CHRF288-11 %inh in the assay on CHRF288-11 is on record as 1.868%. For the same compound, the CMS %inh in the assay with CMS was -1.89%. The ML-2 %inh in the assay on ML-2 came to 0.3274%. Also, the MV4-11 %inh in the assay on MV4-11 came to 0.9814%.

As for `Cc1[nH]nc2c1N=C(c1ccccc1Cl)c1cc([N+](=O)[O-])ccc1N2` [SJ000581173-1], the MOLM-13 %inh with MOLM-13 amounted to 62.4%. In addition, the U937 %inh in the assay on U937 was 91.37%. In addition, the M07e %inh in the assay on M07e was determined as 57.3%. For the same compound, the CMK %inh with CMK came to 116.1%. Also, the CHRF288-11 %inh in the assay on CHRF288-11 worked out at 37.73%. Moreover, the CMS %inh with CMS was found to be 91.81%. In addition, the ML-2 %inh with ML-2 came out at 56.78%. Further, in the assay with MV4-11, the MV4-11 %inh was determined as 86.62%.

With `CS(=O)(=O)CCNCc1ccc(-c2ccc3ncnc(Nc4ccc(OCc5cccc(F)c5)c(C(F)(F)F)c4)c3c2)o1` [SJ000573152-1, U14859/108/1], in the assay with MOLM-13, the MOLM-13 %inh is listed as 2.035%. The U937 %inh in the assay with U937 stood at 2.673%. Further, the M07e %inh with M07e is 0.4672%. The CMK %inh in the assay with CMK is listed as -0.9918%. The CHRF288-11 %inh in the assay on CHRF288-11 worked out at 2.26%. In addition, in the assay on CMS, the CMS %inh is reported as -1.451%. Also, the ML-2 %inh in the assay with ML-2 worked out at 2.813%. In the assay on MV4-11, the MV4-11 %inh came out at 3.001%.

For `O=C1Nc2ccc(I)cc2C1=Cc1cc(Br)c(O)c(Br)c1` [SJ000287883-4, GW 5074 | GW5074 | RAF1 KINASE INHIBITOR I | U7401/61/2 | GW5074], the MOLM-13 %inh in the assay with MOLM-13 is 3.135%. For the same compound, the U937 %inh in the assay on U937 is recorded as 2.224%. In the assay on M07e, the M07e %inh is listed as 1.287%. Also, in the assay with CMK, the CMK %inh is 3.747%. Further, in the assay on CHRF288-11, the CHRF288-11 %inh stood at 7.111%. Further, in the assay on CMS, the CMS %inh is 1.257%. Besides, the ML-2 %inh in the assay on ML-2 is -0.3991%. Moreover, the MV4-11 %inh in the assay on MV4-11 is listed as 1.335%.

Consider `Oc1cccc(-c2nc(-c3ccccc3)[nH]c2-c2ccncc2)c1` [SJ000573176-1, KH49127-012A1], for which, in the assay with MOLM-13, the MOLM-13 %inh is listed as 8.153%. Besides, in the assay on U937, the U937 %inh amounted to 2.636%. In the assay with M07e, the M07e %inh worked out at 1.15%. Moreover, the CMK %inh with CMK stood at 4.668%. Moreover, the CHRF288-11 %inh with CHRF288-11 is given as 2.324%. Moreover, the CMS %inh with CMS was found to be 5.24%. Also, the ML-2 %inh in the assay with ML-2 turned out to be 2.359%. The MV4-11 %inh with MV4-11 turned out to be 3.826%.

`CCCCNc1cc(C(=O)O)cc(S(N)(=O)=O)c1Oc1ccccc1` [SJ000285893-7, BUMETANIDE]: the MOLM-13 %inh in the assay with MOLM-13 (MOLM-13 %inh, 10 µM) is -2.419%. For the same compound, the U937 %inh in the assay on U937 (U937 %inh, 10 µM) is listed as 1.768%. Also, the M07e %inh with M07e (M07e %inh, 10 µM) is reported as -2.011%. Besides, the CMK %inh with CMK (CMK %inh, 10 µM) is reported as -6.073%. Also, the CHRF288-11 %inh in the assay with CHRF288-11 (CHRF288-11 %inh, 10 µM) was -2.258%. Besides, the CMS %inh with CMS (CMS %inh, 10 µM) is given as 2.865%. Besides, the ML-2 %inh with ML-2 (ML-2 %inh, 10 µM) is listed as -1.959%. Moreover, in the assay with MV4-11 (MV4-11 %inh, 10 µM), the MV4-11 %inh was -2.25%.

As for `NS(=O)(=O)c1cccc(Nc2cc(-c3ccc(F)cc3)n[nH]2)c1` [SJ000573326-1, T350/64/20], the MOLM-13 %inh in the assay with MOLM-13 came to 68.76%. In the assay with U937, the U937 %inh is -2.237%. Further, the M07e %inh in the assay on M07e came out at 6.143%. The CMK %inh with CMK was -1.826%. Besides, the CHRF288-11 %inh with CHRF288-11 is -0.9199%. In addition, the CMS %inh in the assay on CMS worked out at 1.139%. Besides, the ML-2 %inh in the assay on ML-2 was found to be 1.419%. The MV4-11 %inh with MV4-11 was 42.33%.

Take `NC(=O)c1ccc(-c2nc(-c3ccccn3)c(-c3ccc4c(c3)OCO4)[nH]2)cc1` [SJ000573251-1, TH48888-160A1]: the MOLM-13 %inh with MOLM-13 was 3.34%. Further, in the assay with U937, the U937 %inh is -1.697%. Further, the M07e %inh with M07e amounted to 3.715%. Also, the CMK %inh in the assay on CMK was 9.718%. Further, the CHRF288-11 %inh with CHRF288-11 was determined as 1.837%. Further, the CMS %inh in the assay with CMS is 1.606%. The ML-2 %inh with ML-2 is recorded as 2.652%. Also, the MV4-11 %inh in the assay with MV4-11 came out at 2.981%.

Turning to `O=C1Cc2c([nH]c3ccc(Br)cc23)-c2ncccc2N1` [SJ000773177-1, 1-AZAKENPAULLONE], the MOLM-13 %inh with MOLM-13 stood at 1.556%. Also, the U937 %inh in the assay with U937 was determined as 4.514%. For the same compound, in the assay on M07e, the M07e %inh is listed as 0.4716%. Further, in the assay on CMK, the CMK %inh is -2.288%. Besides, the CHRF288-11 %inh in the assay on CHRF288-11 is 3.099%. In the assay on CMS, the CMS %inh is 11.6%. In the assay on ML-2, the ML-2 %inh was 3.703%. Further, the MV4-11 %inh with MV4-11 turned out to be 9.942%.

With `CC[N+](C)(CC)CCOC(=O)C(O)(c1ccccc1)C1CCCCC1` (stereo not shown) [SJ000555718-1, OXYPHENONIUM BROMIDE], in the assay with MOLM-13, the MOLM-13 %inh stood at 7.019%. Moreover, the U937 %inh in the assay with U937 was determined as 4.807%. Moreover, the M07e %inh in the assay on M07e was -3.166%. Also, the CMK %inh in the assay on CMK is 0.4248%. Further, the CHRF288-11 %inh in the assay on CHRF288-11 was found to be 89.25%. Further, the CMS %inh with CMS is -0.491%. The ML-2 %inh in the assay on ML-2 worked out at 3.325%. Besides, the MV4-11 %inh with MV4-11 stood at 4.785%.

Regarding `Cn1c(-c2nonc2N)nc2cnccc21` [SJ000573229-1, SD100950-025A1], the MOLM-13 %inh with MOLM-13 was found to be 0.5998%. The U937 %inh in the assay on U937 is 2.832%. The M07e %inh with M07e was -6.783%. The CMK %inh in the assay with CMK came out at 8.868%. In the assay with CHRF288-11, the CHRF288-11 %inh came to 1.476%. Further, in the assay with CMS, the CMS %inh turned out to be 2.573%. Moreover, the ML-2 %inh in the assay on ML-2 amounted to 1.359%. Also, in the assay with MV4-11, the MV4-11 %inh stood at 1.313%.

In the case of `c1ccc(Oc2ccc(Nc3ncc(-c4ccccc4)o3)cc2)cc1` [SJ000573154-1, U15924/95/2], in the assay on MOLM-13, the MOLM-13 %inh is on record as -2.365%. For the same compound, the U937 %inh in the assay with U937 amounted to 3.231%. In addition, the M07e %inh in the assay with M07e is listed as -0.6223%. Besides, in the assay with CMK, the CMK %inh was -2.277%. Further, in the assay with CHRF288-11, the CHRF288-11 %inh is recorded as -6.587%. Also, the CMS %inh with CMS was -3.51%. Besides, the ML-2 %inh in the assay on ML-2 is 0.5718%. For the same compound, the MV4-11 %inh with MV4-11 is -2.884%.

Regarding `N#Cc1cccc(Nc2nccc(-c3cnn4ncccc34)n2)c1` [SJ000573330-1, U19339/96/3], the MOLM-13 %inh with MOLM-13 worked out at 98.39%. Also, the U937 %inh in the assay on U937 came to 80.06%. Further, the M07e %inh in the assay on M07e was determined as 113.8%. Further, the CMK %inh in the assay on CMK worked out at 106.6%. Also, the CHRF288-11 %inh in the assay on CHRF288-11 is recorded as 55.56%. Further, the CMS %inh in the assay on CMS was found to be 104.6%. For the same compound, in the assay with ML-2, the ML-2 %inh was determined as 56.71%. Further, the MV4-11 %inh in the assay on MV4-11 is listed as 85.56%.

With `CCCCCCCCCCCCCCCCOP(=O)([O-])OCC[N+](C)(C)C` [SJ000286181-3, MILTEFOSINE], in the assay with MOLM-13, the MOLM-13 %inh is recorded as 1.005%. Moreover, in the assay on U937, the U937 %inh is listed as -1.059%. Also, the M07e %inh with M07e turned out to be 2.383%. Also, the CMK %inh in the assay with CMK is given as -1.001%. The CHRF288-11 %inh in the assay on CHRF288-11 was 1.656%. In the assay on CMS, the CMS %inh is on record as -1.205%. In the assay on ML-2, the ML-2 %inh is -0.1071%. The MV4-11 %inh with MV4-11 is recorded as -0.6681%.
